{
  "source": "paper PMC6222871",
  "about": "“Suppression of Hepatitis C Virus Genome Replication and Particle Production by a Novel Diacylglycerol Acyltransferases Inhibitor” (Molecules : A Journal of Synthetic Chemistry and Natural …, 2018)",
  "key": {"[1]": {"test_system": "DGATs (rat liver microsome)", "parameters": "method as in PMID 23141914, PMID 23242135", "settings": "cited from earlier work"}, "recombinant DGAT-2": {"test_system": "recombinant DGAT-2", "parameters": "method as in PMID 23242135", "settings": "cited from earlier work"}, "Huh7.5 cells [2]": {"test_system": "Huh7.5 cells", "test": "visualization of intracellular LD by BODIPY in Huh7.5 cells", "format": "cell-based", "settings": "8 μM, 72 h", "method": "Huh7.5 cells were incubated in a 24-well plate on top of coverslip in the presence of either DMSO, 8 μM of 10j, or 20 μM of A922500 for 72 h. Then, Huh7.5 cells were fixed by using 4% paraformaldehyde for 15 min and stained with 0.001% BODIPY 493/503 D3922 (Invitrogen, Carlsbad, CA, USA) for 10 min. The coverslips were mounted onto slides using Prolong Gold anti-fade reagent with DAPI (Invitrogen, Carlsbad, CA, USA) Fluorescence were examined and captured by Nikon confocal laser scanning microscopic system. LD content was quantified using the ImageJ program."}, "[3]": {"test_system": "HCV genotype 1b (Huh7.5-Bart79I)", "test": "HCV genome replication in sub-genomic replicon Huh7.5-Bart79I cells by real-time RT-PCR", "method": "Quantitative real-time RT-PCR analysis to measure levels of HCV RNA and GAPDH was conducted as previously described. The cDNA synthesis and reverse transcription of miR-122 were performed by using Taqman quantitative RT-PCR (qRT-PCR) analysis. Taqmanq RT-PCR components including TaqMan miR122 probe, endogenous control U6 probe, TaqMan® MicroRNA reverse transcription Kit and TaqMan® universal master mix II were purchased from Thermo Fisher Scientific (Waltham, MA, USA)"}, "[4]": {"test_system": "HCV genotype 2a (Huh7.5-J6/JFH1)", "test": "HCV particle production: infectivity of supernatant on naive Huh7.5 cells by real-time RT-PCR", "format": "cell-based, hepatitis C virus", "settings": "for effect on HCV particle production: 10 μM; for EC50: Hepatitis C virus, read-out: EC50 on HCV particle production", "experimental": "A922500, a commercially available DGAT-1-specific inhibitor was used as a positive control [10]. […] Therefore, we decided to examine effects of these twelve DGAT inhibitors on HCV particle production as well as RNA genome replication in parallel. For this purpose, we transfected Huh7.5 cells with in vitro-transcribed genotype 2a HCV RNAs (Huh7.5-J6/JFH1) [16] and treated them with each DGAT inhibitor for 6 and 72 h at 10 μM. HCV genome replication as well as host GAPDH RNA levels was quantitated by a real-time RT-PCR analysis. For assessment of HCV particle production, we harvested and filtered the supernatant from Huh7.5-J6/JFH1 cells treated with DGAT inhibitors and incubated the supernatant with naïve huh7.5 cells for 72 h. Then, infectivity was measured by a real-time RT-PCR analysis.\nHuh7.5-J6/JFH-1 cells were seeded into 6-well plates at a density of 3 × 10^5 cells per well with DMEM containing 10% FBS. […] Total RNAs were extracted from treated cells and virus-containing media were harvested at each time point. Naïve Huh7.5 cells were infected with these virus-containing media after concentration with centricons."}, "Huh7.5 cells [5]": {"test_system": "Huh7.5 cells", "test": "TG quantification assay in Huh7.5 cells", "format": "cell-based", "settings": "8 μM, 72 h", "method": "Cells were washed with cold PBS, suspended, and homogenized in 1 mL of 5% NP-40/ddH2O solution. Then, homogenized cells were slowly heated to 90 °C for 5 min or until the NP-40 becomes cloudy, then cooled down to room temperature. Previous step was repeated to solubilize all TG. Cells were centrifuged for 2 min at top speed using a microcentrifuge to remove any insoluble material. Samples were diluted 10-fold with ddH2O before proceeding with the assay. […] Samples were added with 50 μL of reaction mix into each well and incubated at room temperature for 60 min while protected from light. Fluorescence was measured by using a fluorometric reader with Ex/Em = 535/590 nm. The amount of TG from standard sample was calculated using the following equation: Ts=Corrected absorbance−(y−intercept)/slope The amount of intracellular TG was calculated using the following equation: Concentration=Ts/Sv*D where the Ts is the amount of TG from standard curve and Sv is the volume of sample added to sample wells and D is the sample dilution factor."}, "Huh7.5-J6/JFH1 cells": {"test_system": "Huh7.5-J6/JFH1 cells", "test": "immunofluorescence of NS3 and LD (BODIPY) in Huh7.5-J6/JFH1 cells", "format": "cell-based, hepatitis C virus", "settings": "72 h", "method": "Based on previous results, we noticed that EC50 values required for inhibition of the HCV genome replication by 10j were around 1–2 μM ranges (Figure 2 and Table 3). However, IC50 value required for inhibition of the enzymatic DGAT activities in vitro by 10j was reported to be higher than 5 μM (Table 2 and Figure 6E). Based on these observations, we hypothesized that inhibition of DGATs by 10j may not play a direct role in suppression of the viral genome replication. To test this hypothesis, we decided to study effects of 10j on DGAT and the viral genome replication in a simultaneous manner. […] Then, the viral NS3 protein and LDs were visualized by using an anti-NS3 antibody and BODIPY, respectively. […] Significant reduction of LD was only seen after treatment of 10j higher than 5 μM. In order to confirm this observation, we decided to utilize another HCV-positive cell—JFH1-NS5A-GFP cells—which were infected with infectious HCV genotype 2a particles with a visually tractable NS5A due to the presence of in-frame-fused GFP protein with NS5A. TGs of these cells were stained with ORO for visualization in parallel. […] In accordance with the previous result, reduction of the NS5A-GFP protein preceded decline of TG biosynthesis (Figure 7D).\nImmunofluorescence analysis of Huh7.5-J6/JFH1 or Huh7.5-JFH1-5A-GFP cells in the presence of 10j was conducted as previously described. Fluorescence were examined and captured by Nikon confocal laser scanning microscopic system. LD content was quantified using the ImageJ program."}, "miR122": {"test_system": "miR122", "test": "miR122 RT-PCR in Huh7.5-J6/JFH1 cells", "format": "cell-based", "settings": "up to 8 μM, 72 h", "description": "Since DGATs play an important role in maintaining liver-likeness in hepatocytes, the antiviral effect of 10j might be due to mere loss of this liver-specific character. […] In addition, HNF4α was also reported to be reduced in DGAT1-silenced cell lines. Therefore, we wished to test effects of 10j on HNF4α."}, "[6]": {"test_system": "HCVcc particles (JFH1-NS5A-GFP)", "test": "HCVcc infectivity and time-of-addition assay", "format": "cell-based, hepatitis C virus", "settings": "pre-treatment (−2 h), co-treatment (0 h), post-treatment (+2 h); dose-dependent", "experimental": "In order to test the effects of 10j on the early viral functions, such as the viral entry and uncoating of the viral genome, we performed the “time of addition” experiment by using the cell culture-derived infectious HCVcc particles (JFH1-NS5A-GFP) (Figure 4A).\nThe time-of-addition assay was conducted as previously reported [38]. Briefly, naïve Huh-7.5 cells were plated in 384-well plates and incubated with serially diluted 10j at specific time points during virus infection: pre-infection treatment; co-infection treatment; post-infection treatment. Afterwards, infected cells were incubated at 37 °C for 3 days in the presence of inhibitors. At 72 h post-infection, HCV infection rates and cytotoxicity were determined by the number of GFP positive cells and Hoechst 33,342 positive cell nuclei, a marker for cell viability, respectively, using fully automated confocal microscopy (Opera, PerkinElmer, Hamburg, Germany). The acquired images were analyzed by in-house developed software. Percentages of HCV inhibition were calculated using 1% DMSO-treated cells and 10 μM of sofosbuvir treated cells and were set to 0% and 100% inhibition, respectively. Experiments were conducted at least two-times independently and in triplicates."}, "[7]": {"test_system": "HCV NS5A (Huh7.5-Bart79I, genotype 1b)", "test": "western blot of HCV NS5A protein in Huh7.5-Bart79I cells", "format": "cell-based, hepatitis C virus", "method": "Due to the tight coupling of viral genome replication to its protein expression, inhibition of viral RNA genome replication leads to a subsequent reduction of viral protein expression.\n(A) Dose-dependent western blot analysis of Huh7.5-J6/JFH1 cells treated with increasing concentrations of 10j for 72 h by measuring protein expression levels of HCV NS3 relative to the β-actin. Daclatasvir, an NS5A inhibitor was used as a positive control. (B) Time-dependent western blot analysis of J6/JFH1 RNA-transfected Huh7.5 cells treated with 8 μM of 10j for increasing periods of time analyzed by measuring protein expression levels of HCV NS3 relative to the β-actin. (C,D) Same experiments were performed as in (A,B) to study effects of 10j on the expression levels of the NS5A protein of Huh7.5-Bart79I cells in a dose- as well as time-dependent manners.\nWestern blot analysis of Huh7.5-J6/JFH1 or Bart79I cells treated with 10j was conducted as previously described. Relative amounts of HNF4α proteins were quantified by using an HNF4α mouse monoclonal antibody (M04), clone 4E2 (Abnova) with the dilution of 1:1000."}},
  "note": "Like-named read-outs stand apart in the source and are kept apart here.",
  "data": [
    {"smiles": "O=C(NCc1ccco1)c1ccc2[nH]c(COc3ccc(C45CC6CC(CC(C6)C4)C5)cc3)nc2c1", "note": "[10j, 2-{[4-(adamant-1yl)phenoxy]methyl)-N-(furan-2-ylmethyl)-1H-benzo[d]imidazole-5-carboxamide]", "values": [
      {"measurement": "IC50", "setting": "[1]", "result": 4400, "unit": "nM"},
      {"measurement": "IC50", "setting": "recombinant DGAT-2", "result": 17300, "unit": "nM"},
      {"measurement": "reduction in the level of LDs (BODIPY)", "setting": "Huh7.5 cells [2]", "result": 49, "unit": "%"},
      {"measurement": "T1/2, time required for reducing the viral RNAs by half", "setting": "[3]; 8 μM, genotype 1b", "result": 19.2, "unit": "h"},
      {"measurement": "EC50", "setting": "[3]; Hepatitis C virus, 72 h, read-out: EC50 HCV RNA, subgenomic replicon", "result": 3300, "unit": "nM"},
      {"measurement": "effect on HCV particle production", "setting": "[4]; 6 h (Figure 1B)", "result": "able to block HCV particle production"},
      {"measurement": "effect on HCV particle production", "setting": "[4]; 72 h (Figure 1D)", "result": "able to block both viral RNA genome replication and particle production"},
      {"measurement": "EC50", "setting": "[4]; Huh7.5, 3 h", "result": 1000, "unit": "nM"},
      {"measurement": "EC50", "setting": "[4]; Huh7.5, 6 h", "result": 1700, "unit": "nM"},
      {"measurement": "EC50", "setting": "[4]; Huh7.5, 12 h", "result": 400, "unit": "nM"},
      {"measurement": "EC50", "setting": "[4]; Huh7.5, 24 h", "result": 400, "unit": "nM"},
      {"measurement": "EC50", "setting": "[4]; Huh7.5, 48 h", "result": 700, "unit": "nM"},
      {"measurement": "EC50", "setting": "[4]; Huh7.5, 72 h", "result": 200, "unit": "nM"},
      {"measurement": "reduction of endogenous level of TG", "setting": "Huh7.5 cells [5]", "result": 83, "unit": "%"},
      {"measurement": "concentration at which the viral NS3 protein started to disappear", "setting": "Huh7.5-J6/JFH1 cells", "result": 1, "unit": "µM"},
      {"measurement": "concentration for significant reduction of LD", "setting": "Huh7.5-J6/JFH1 cells", "result": "higher than 5 μM"},
      {"measurement": "LD levels (BODIPY)", "setting": "Huh7.5-J6/JFH1 cells; up to 2 μM", "result": "stayed unaltered"},
      {"measurement": "expression levels of miR122", "setting": "miR122", "result": "increased levels of miR122"},
      {"measurement": "infection of Huh7.5 cells with HCVcc particles", "setting": "[6]", "result": "all abrogated"},
      {"measurement": "time required for reducing 50% of HCV protein expression (T1/2)", "setting": "[7]; 10 μM of 10j, 8 μM (figure legend)", "result": 37.4, "unit": "h"},
      {"measurement": "EC50", "setting": "[7]; Hepatitis C virus, NS5A, read-out: concentration required for reducing 50% of HCV protein expression (EC50)", "result": 4100, "unit": "nM"}
    ]}
  ]
}
